# Source: US12115155B2, “Solid dosage form of a nicotine concentration” (Fertin Pharma A/S, priority 2017, dated 2024)
# Settings: nicotine concentration increased from 100 microgram/mL to 14,000 microgram/mL
smiles,measurement,value
CN1CCCC1c1cccnc1 (stereo not shown) [nicotine],change of permeability of nicotine across the buccal mucosa,decrease of about a factor of two
